Test system: lipogenesis in swine adipose tissue
Test: Inhibition of lipogenesis (lipid synthesis from glucose-U^14 C) in swine adipose tissue slices
Format: cell-based
Conditions: Sus scrofa, 100 micrograms per milliliter of incubation mixture, 37° C., 2 hours, 300 microunits of insulin, 5% DMSO, triplicate, read-out: Percent Inhibition of lipogenesis (lipid synthesis) compared to control tests
From the text: The manner in which they cause this effect is not known with certainty; it is believed that they interfere with the synthesis of fatty acids in the tissues. Their effectiveness for this purpose has been ascertained by immersing samples of swine adipose tissue in a liquid medium containing radioactive glucose and the test chemical for a period of time, then isolating the lipid from the treated tissue and determining the uptake of the radioactive carbon by means of scintillation counting techniques. These tests were conducted in swine adipose tissue because in swine, the primary site of lipogenesis--i.e., fatty acid synthesis--appears to be adipose tissue.
Described in more detail, the tests were conducted according to the following general procedure:
150 milligrams of slices of swine adipose tissue were incubated at 37° C. for 2 hours with shaking in 3 milliliters of Krebs-Ringer bicarbonate solution containing one-half of the normal calcium ion concentration, 60 micromoles of glucose, 0.5 micro-Curie of glucose-U^14 C, and 300 microunits of insulin, and 5% dimethyl sulfoxide (DMSO). The test compound was added as a solution or suspension in DMSO and was present as a concentration of 100 micrograms per milliliter of incubation mixture.
The incubation was terminated by addition of 0.25 milliliter of 1 N sulfuric acid. The resulting mixture was extracted with a total of 25 milliliters of chloroform:methanol (2:1, v/v). The extracts were washed according to Folch et al. (J. Biol. Chem., 226, 497-509, (1957)), air dried, and counted in a liquid scintillation counter with 15 milliliters of counting fluid (two parts toluene containing 0.4% w/v New England Nuclear Omnifluor: 1 part Triton X-100). The tests were conducted in triplicate and were accompanied by control tests in which all ingredients,proportions and conditions were the same except that no test compound was included. From the data obtained were calculated the percent inhibition of lipid synthesis by the test compound. The data obtained are reported as the percent inhibition of lipogenesis compared to the results obtained in the control tests wherein only the test compound was omitted.

SMILES | inhibition at 100 µg/mL
CCOC(=O)c1cc2c(Oc3ccccc3)cccc2o1 [Compound 4, Ethyl 4-phenoxybenzofuran-2-carboxylate] | 28%
CCOC(=O)c1cc2cc(Cc3ccccc3)ccc2o1 [Compound 1, Ethyl 5-benzylbenzofuran-2-carboxylate] | 45%
CCOC(=O)c1cc2cc(-c3ccc(N)cc3)ccc2o1 [Compound 9, Ethyl 5-(4-aminophenyl)benzofuran-2-carboxylate] | 45%
CCOC(=O)C1Cc2cc(-c3ccccc3)ccc2O1 (stereo not drawn) [Compound 10, Ethyl 2,3-dihydro-5-phenylbenzofuran-2-carboxylate] | 21%
CCOC(=O)C1Cc2cc(Cc3ccccc3)ccc2O1 (stereo not drawn) [Compound 11] | 40%
CCOC(=O)C1Cc2c(Oc3ccccc3)cccc2O1 (stereo not drawn) [Compound 13] | 20%
CCOC(=O)c1cc2cc(-c3ccc(NC(C)=O)cc3)ccc2o1 [Compound 8] | 52%
CCOC(=O)c1cc2cc(-c3ccc(C(C)O)cc3)ccc2o1 (stereo not drawn) [Compound 7, Ethyl 5-(4-(1-hydroxyethyl)phenyl)benzofuran-2-carboxylate] | 71%
COC(=O)C1Cc2cc(-c3ccc(C(C)O)cc3)ccc2O1 (stereo not drawn) [Compound 14] | 85%
CCOC(=O)C1Cc2ccc(Oc3ccccc3)cc2O1 (stereo not drawn) [Compound 17] | 29%
CCOC(=O)c1cc2cc(C(=O)c3ccccc3)ccc2o1 [Compound 3] | 47%
CCOC(=O)C1Cc2cc(-c3ccc(Cl)cc3)ccc2O1 (stereo not drawn) [Compound 18, Ethyl 2,3-dihydro-5-(4-chlorophenyl)benzofuran-2-carboxylate] | 28%
CCOC(=O)C1Cc2cc(C3CCCCC3)ccc2O1 (stereo not drawn) [Compound 16] | 21%
C=CCOC(=O)C1Cc2cc(Cc3ccccc3)ccc2O1 (stereo not drawn) [Compound 12] | 36%
CCCCCCOc1ccc2oc(C(=O)OCC)cc2c1 [Compound 2] | 23%
CCOC(=O)c1cc2cc(-c3ccc(C(C)=O)cc3)ccc2o1 [Compound 5, Ethyl 5-(4-acetylphenyl)benzofuran-2-carboxylate] | 24%
CCOC(=O)C1Cc2cc(-c3ccc(NC(C)=O)cc3)ccc2O1 (stereo not drawn) [Compound 15] | 88%
CCOC(=O)c1cc2cc(-c3ccc(OC(C)=O)cc3)ccc2o1 [Compound 6, Ethyl 5-(4-acetyloxyphenyl)benzofuran-2-carboxylate] | 56%

Reference: US4213999A, “Inhibition of lipogenesis” (Shell Oil Company, priority 1979, dated 1980)
